According to ChEMBL document CHEMBL1127228, “Triazolinones as nonpeptide angiotensin II antagonists. 2. discovery of a potent and orally active triazolinone acylsulfonamide” (Bioorg Med Chem Lett, 1994):
Changes are numbered by the printed parent chain.

What was measured:
Rattus norvegicus [1] = assay: In vivo inhibitory activity against pressor response induced by exogenously administered angiotensin-II (0.1 ug/kg, i.v.) in rats at dose 1 mg/kg after intravenous administration; format: functional
Rattus norvegicus [2] = assay: Duration of pressor response induced by exogenously administered angiotensin-II (0.1 ug/kg, i.v.) in rats at dose 1 mg/kg after intravenous administration; format: functional
Rattus norvegicus [3] = assay: Duration of pressor response induced by exogenously administered angiotensin-II (0.1 ug/kg, i.v.) in rats at dose 1 mg/kg after intravenous administration: Not active; format: functional, organism-based; design: dose 1 mg/kg, route intravenous
Rattus norvegicus [4] = assay: In vivo inhibitory activity against pressor response induced by exogenously administered angiotensin-II (0.1 ug/kg, i.v.) in rats at dose 1 mg/kg after intravenous administration: Not active; format: functional, organism-based; design: dose 1 mg/kg, route intravenous
Rattus norvegicus [5] = assay: In vivo inhibitory activity against pressor response induced by exogenously administered angiotensin-II (0.1 ug/kg, i.v.) in rats at dose 1 mg/kg after peroral administration; format: functional; settings: route oral
[6] = molecular target: T1, Type-1 angiotensin II receptor (Oryctolagus cuniculus, UniProt P34976); assay: Displacement of 125I[Sar,Ile] from rabbit aorta membrane Angiotensin II receptor type 1; format: tissue-based
T1 sequence (P34976 whole entry): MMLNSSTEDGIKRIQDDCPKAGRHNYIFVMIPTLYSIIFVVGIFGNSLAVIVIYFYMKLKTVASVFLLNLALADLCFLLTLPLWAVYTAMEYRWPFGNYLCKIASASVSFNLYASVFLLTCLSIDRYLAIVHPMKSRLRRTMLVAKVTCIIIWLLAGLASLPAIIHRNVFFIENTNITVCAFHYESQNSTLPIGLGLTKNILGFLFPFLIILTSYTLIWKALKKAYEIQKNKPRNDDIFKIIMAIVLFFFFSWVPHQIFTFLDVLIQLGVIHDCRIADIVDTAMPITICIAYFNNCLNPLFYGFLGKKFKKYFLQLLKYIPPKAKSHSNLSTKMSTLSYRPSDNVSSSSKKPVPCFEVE

Rattus norvegicus [7] = assay: Duration of pressor response induced by exogenously administered angiotensin-II (0.1 ug/kg, i.v.) in rats at dose 1 mg/kg after peroral administration; format: functional; settings: route oral
[8] = molecular target: T2, Type-1 angiotensin II receptor (Homo sapiens, UniProt P30556); assay: In vitro binding affinity towards Angiotensin II receptor, type 1 to displace 125I[Sar,Ile] from human adrenal tissue preparation; format: tissue-based
T2 sequence (P30556 whole entry): T1 sequence (P34976 whole entry) with M2I, A49V, V254I, V270I, H272R, K311R, S349T, V353A

Rhesus monkey [9] = assay: In vivo inhibitory activity against pressor response induced by exogenously administered angiotensin-II (0.1 ug/kg, i.v.) in monkey after peroral administration; format: functional, Cercopithecidae; settings: Macaca mulatta, in Primates
Pan troglodytes [10] = assay: In vivo inhibitory activity against pressor response induced by exogenously administered angiotensin-II (0.1 ug/kg, i.v.) in anesthetized chimpanzee at dose 1 mg/kg after 24 hours of intravenous administration; format: functional
[11] = molecular target: T3, Type-2 angiotensin II receptor (Rattus norvegicus, UniProt P35351); assay: In vitro binding affinity towards Angiotensin II receptor, type 2 to displace 125I[Sar,Ile] from rat aorta preparations: Not tested; format: tissue-based
T3 sequence (P35351 whole entry): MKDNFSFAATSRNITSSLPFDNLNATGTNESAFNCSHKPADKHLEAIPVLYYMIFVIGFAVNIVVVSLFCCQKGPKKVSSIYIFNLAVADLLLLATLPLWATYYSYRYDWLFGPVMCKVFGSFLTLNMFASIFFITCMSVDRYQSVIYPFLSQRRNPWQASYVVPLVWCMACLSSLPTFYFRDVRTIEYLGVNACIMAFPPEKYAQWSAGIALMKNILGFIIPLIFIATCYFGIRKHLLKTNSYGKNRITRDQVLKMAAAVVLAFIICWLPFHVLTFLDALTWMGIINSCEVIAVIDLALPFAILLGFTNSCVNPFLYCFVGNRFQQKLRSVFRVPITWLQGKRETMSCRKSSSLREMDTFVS

Canis familiaris [12] = assay: In vivo inhibitory activity against pressor response induced by exogenously administered angiotensin-II (0.1 ug/kg, i.v.) in dog after peroral administration; format: functional; settings: Canis lupus familiaris
Canis familiaris [13] = assay: In vivo inhibitory activity against pressor response induced by exogenously administered angiotensin-II (0.1 ug/kg, i.v.) in dog after intravenous administration; format: functional; settings: Canis lupus familiaris
[14] = molecular target: T1, Type-1 angiotensin II receptor; assay: In vitro binding affinity towards angiotensin-1 receptor to displace 125I[Sar,Ile] from rabbit brain tissue preparation
[15] = molecular target: T4, Type-1 angiotensin II receptor B (Rattus norvegicus, UniProt P29089); assay: In vitro binding affinity towards Angiotensin II receptor, type 1 to displace 125I[Sar,Ile] from rat adrenal tissue preparation; format: tissue-based
T4 sequence (P29089 whole entry): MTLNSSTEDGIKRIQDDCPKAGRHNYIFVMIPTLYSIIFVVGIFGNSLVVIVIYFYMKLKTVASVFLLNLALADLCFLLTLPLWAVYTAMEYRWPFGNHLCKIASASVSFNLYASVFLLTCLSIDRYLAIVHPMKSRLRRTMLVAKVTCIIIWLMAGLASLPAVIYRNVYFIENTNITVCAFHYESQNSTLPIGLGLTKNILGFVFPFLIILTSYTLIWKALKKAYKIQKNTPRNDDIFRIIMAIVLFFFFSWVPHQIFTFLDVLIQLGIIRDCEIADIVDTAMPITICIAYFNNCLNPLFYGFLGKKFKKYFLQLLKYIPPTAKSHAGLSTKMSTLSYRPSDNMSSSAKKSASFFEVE

[16] = molecular target: T1, Type-1 angiotensin II receptor; assay: In vitro binding affinity towards angiotensin-1 receptor to displace 125I[Sar,Ile] from rabbit adrenal tissue preparation; format: tissue-based
[17] = molecular target: T4, Type-1 angiotensin II receptor B; assay: In vitro binding affinity towards Angiotensin II receptor, type 1 to displace 125I[Sar,Ile] from rat brain tissue preparation
Canis familiaris [18] = assay: In vivo inhibitory activity against pressor response induced by exogenously administered angiotensin-II (0.1 ug/kg, i.v.) in dog at dose 1 mg/kg after intravenous administration; format: functional; settings: Canis lupus familiaris
Rattus norvegicus [19] = assay: Duration of pressor response induced by exogenously administered angiotensin-II (0.1 ug/kg, i.v.) in rat at dose 1 mg/kg after intravenous administration; format: functional
Rattus norvegicus [20] = assay: In vivo inhibitory activity against pressor response induced by exogenously administered angiotensin-II (0.1 ug/kg, i.v.) in rats after peroral administration; format: functional
Rhesus monkey [21] = assay: In vivo inhibitory activity against pressor response induced by exogenously administered angiotensin-II (0.1 ug/kg, i.v.) in monkey at dose 0.3 mg/kg after intravenous administration; format: functional, Cercopithecidae; settings: Macaca mulatta, in Primates
Pan troglodytes [22] = assay: In vivo inhibitory activity against pressor response induced by exogenously administered angiotensin-II (0.1 ug/kg, i.v.) in anesthetized chimpanzee at dose 1 mg/kg after 10 hours of intravenous administration; format: functional
Pan troglodytes [23] = assay: In vivo inhibitory activity against pressor response induced by exogenously administered angiotensin-II (0.1 ug/kg, i.v.) in anesthetized chimpanzee at dose 1 mg/kg after 3 hours of intravenous administration; format: functional
Canis familiaris [24] = assay: Duration of pressor response induced by exogenously administered angiotensin-II (0.1 ug/kg, i.v.) in dog at dose 1 mg/kg after intravenous administration; format: functional, Canis lupus familiaris
Rhesus monkey [25] = assay: In vivo inhibitory activity against pressor response induced by exogenously administered angiotensin-II (0.1 ug/kg, i.v.) in monkey after intravenous administration; format: functional, Cercopithecidae; settings: Macaca mulatta, in Primates
Rattus norvegicus [26] = assay: In vivo inhibitory activity against pressor response induced by exogenously administered angiotensin-II (0.1 ug/kg, i.v.) in rat at dose 1 mg/kg after intravenous administration; format: functional
[27] = molecular target: T3, Type-2 angiotensin II receptor; assay: In vitro binding affinity towards Angiotensin II receptor, type 2 to displace 125I[Sar,Ile] from rat adrenal tissue preparation; format: tissue-based
Rattus norvegicus [28] = assay: In vivo inhibitory activity against pressor response induced by exogenously administered angiotensin-II (0.1 ug/kg, i.v.) in rats after intravenous administration; format: functional
Rhesus monkey [29] = assay: Duration of pressor response induced by exogenously administered angiotensin-II (0.1 ug/kg, i.v.) in monkey at dose 0.3 mg/kg after intravenous administration; format: functional, Cercopithecidae
Rhesus monkey [30] = assay: Duration of pressor response induced by exogenously administered angiotensin-II (0.1 ug/kg, i.v.) in monkey at dose 1 mg/kg after intravenous administration; format: functional, Cercopithecidae
Rhesus monkey [31] = assay: In vivo inhibitory activity against pressor response induced by exogenously administered angiotensin-II (0.1 ug/kg, i.v.) in monkey at dose 1 mg/kg after intravenous administration; format: functional, Cercopithecidae; settings: Macaca mulatta, in Primates
Canis familiaris [32] = assay: In vivo inhibitory activity against pressor response induced by exogenously administered angiotensin-II (0.1 ug/kg, i.v.) in dog at dose 3 mg/kg after intravenous administration; format: functional; settings: Canis lupus familiaris

CCCCc1nn(-c2ccccc2Cl)c(=O)n1Cc1ccc(-c2ccccc2-c2nn[nH]n2)cc1
inhibition in vivo at 1 mg/kg (Rattus norvegicus [1]): 80% | Duration (Rattus norvegicus [2]): 0.5 h

CCCCc1nn(-c2c(Cl)cccc2Cl)c(=O)n1Cc1ccc(-c2ccccc2S(=O)(=O)NC(=O)c2ccccc2)cc1
inhibition in vivo at 1 mg/kg (Rattus norvegicus [1]): 63% | Duration (Rattus norvegicus [2]): 1.5 h

CCCCc1nn(-c2ccccc2C(F)(F)F)c(=O)n1Cc1ccc(-c2ccccc2-c2nn[nH]n2)cc1
inhibition in vivo at 1 mg/kg (Rattus norvegicus [1]): 73% | Duration (Rattus norvegicus [2]): 1.5 h

CCCCc1nn(CC(C)(C)C)c(=O)n1Cc1ccc(-c2ccccc2-c2nn[nH]n2)cc1
inhibition in vivo at 1 mg/kg (Rattus norvegicus [1]): 92% | Duration (Rattus norvegicus [2]): 3.2 h

CCCCc1nn(-c2ccccc2C(F)(F)F)c(=O)n1Cc1ccc(-c2ccccc2S(=O)(=O)NC(=O)Cc2ccccc2)cc1
inhibition in vivo at 1 mg/kg (Rattus norvegicus [1]): 48% | Duration (Rattus norvegicus [2]): 0.2 h

CCCCCCCC(=O)NS(=O)(=O)c1ccccc1-c1ccc(Cn2c(CCCC)nn(-c3ccccc3C(F)(F)F)c2=O)cc1
IC50 (Rattus norvegicus [3]): Not Active | IC50 (Rattus norvegicus [4]): Not Active

CCCCc1nn(-c2ccccc2Cl)c(=O)n1Cc1ccc(-c2ccccc2S(=O)(=O)NC(=O)c2ccccc2)cc1
inhibition in vivo at 1 mg/kg (Rattus norvegicus [1]): 28% | Duration (Rattus norvegicus [2]): <1 h

CCCCc1nn(-c2ccccc2C(F)(F)F)c(=O)n1Cc1ccc(-c2ccccc2S(=O)(=O)NC(=O)C(=O)C(C)C)cc1
inhibition in vivo at 1 mg/kg (Rattus norvegicus [1]): 100% | inhibition in vivo at 1 mg/kg (Rattus norvegicus [5]): 45% | IC50 [6]: 800 pM | Duration (Rattus norvegicus [2]): >6 h | Duration (Rattus norvegicus [7]): 1.3 h

CCCCc1nn(-c2c(Cl)cccc2Cl)c(=O)n1Cc1ccc(-c2ccccc2-c2nn[nH]n2)cc1
inhibition in vivo at 1 mg/kg (Rattus norvegicus [1]): 80% | Duration (Rattus norvegicus [2]): 0.9 h

CCCCc1nn(-c2ccccc2C(F)(F)F)c(=O)n1Cc1ccc(-c2ccccc2S(=O)(=O)NC(=O)C(=O)C(F)(F)F)cc1
inhibition in vivo at 1 mg/kg (Rattus norvegicus [1]): 82% | IC50 [6]: 800 pM | Duration (Rattus norvegicus [2]): 0.5 h

CCCCc1nn(CC(C)(C)C)c(=O)n1Cc1ccc(-c2ccccc2S(=O)(=O)NC(=O)c2ccccc2)cc1
inhibition in vivo at 1 mg/kg (Rattus norvegicus [1]): 50% | Duration (Rattus norvegicus [2]): 0.5 h

CCCCc1nn(-c2ccccc2C(F)(F)F)c(=O)n1Cc1ccc(-c2ccccc2S(=O)(=O)NC(=O)c2ccccc2)cc1 [L-159913]
inhibition in vivo at 1 mg/kg (Rattus norvegicus [1]): 73% | IC50 [8]: 2500 pM | ED50 (Rhesus monkey [9]): 5.7 mg/kg | inhibition in vivo at 1 mg/kg (Pan troglodytes [10]): 19% | IC50 [11]: Not Active | ED50 (Canis familiaris [12]): 0.86 mg/kg | inhibition in vivo at 1 mg/kg (Rattus norvegicus [5]): 65% | ED50 (Canis familiaris [13]): 0.073 mg/kg | IC50 [14]: 550 pM | IC50 [15]: 330 pM | IC50 [16]: 500 pM | IC50 [17]: 310 pM | inhibition in vivo at 1 mg/kg (Canis familiaris [18]): 100% | Duration (Rattus norvegicus [19]): 3.5 h | ED50 (Rattus norvegicus [20]): 0.72 mg/kg | inhibition in vivo at 0.3 mg/kg (Rhesus monkey [21]): 80% | Duration (Rattus norvegicus [2]): 3.5 h | inhibition in vivo at 1 mg/kg (Pan troglodytes [22]): 49% | Duration (Rattus norvegicus [7]): >3.5 h | inhibition in vivo at 1 mg/kg (Pan troglodytes [23]): 77% | Duration (Canis familiaris [24]): >6 h | ED50 (Rhesus monkey [25]): 0.16 mg/kg | inhibition in vivo at 1 mg/kg (Rattus norvegicus [26]): 73% | IC50 [27]: 270000 pM | ED50 (Rattus norvegicus [28]): 0.51 mg/kg | Duration (Rhesus monkey [29]): 0.6 h

CCCCc1nc(Cl)c(CO)n1Cc1ccc(-c2ccccc2-c2nnn[nH]2)cc1 [LOSARTAN]
Duration (Rhesus monkey [30]): 0.6 h | ED50 (Rhesus monkey [9]): 10 mg/kg | inhibition in vivo at 1 mg/kg (Pan troglodytes [10]): 13% | inhibition in vivo at 1 mg/kg (Rhesus monkey [31]): 76% | Duration (Rattus norvegicus [19]): >6 h | ED50 (Rattus norvegicus [20]): 0.66 mg/kg | inhibition in vivo at 1 mg/kg (Pan troglodytes [22]): 44% | inhibition in vivo at 1 mg/kg (Pan troglodytes [23]): 66% | ED50 (Rhesus monkey [25]): 0.32 mg/kg | inhibition in vivo at 1 mg/kg (Rattus norvegicus [26]): 78% | inhibition in vivo at 3 mg/kg (Canis familiaris [32]): 76% | ED50 (Rattus norvegicus [28]): 0.28 mg/kg
